# In patent US10369185B2, “Methods and compositions for enhancement of ability to concentrate” (KYOWA HAKKO BIO CO., LTD., priority 2014, dated 2019):
# “Also recorded” adds a separate entry of the source. Peptide text beside a SMILES is read from it.
# Assays:
# [1] = tested on: male runners; experiment: Lower body reaction, 20-second Quick Board test; assay type: in vivo, human; conditions: for QuickBoard Hit Δ, group mean: Post-Pre; for changes in lower body reaction (Quick Board): LD and HD, no significant differences between groups
# Protocol: The testing protocol is depicted in FIG. 1. Data collection occurred on four separate occasions. Each session required participants to perform a 60-min run at 75% of their previously measured VO2max. Following this run, all participants performed a run at 90% of their VO2max until volitional exhaustion. All participants performed their first trial (DHY) without any rehydration. During this session the total weight lost during the trial was determined. The fluid loss that occurred during this session was then used to determine the participant's swear rate (L·hr^−1). To continue in the study, participant's sweat rate was or exceeded 1.3 L·hr^−1. During the next three trails participants were provided 250 ml of fluid every 15 minutes in equal amounts. During one of the trials participants consumed only a flavored sports drink (ELECT only), while during the other trials participants consumed the alanine-glutamine supplement (Sustamine™) mixed in the same flavored sports drink at either a low (LD: 300 mg per 500 ml) or high (HD: 1 g per 500 ml) dose. A Lower body reaction time was assessed by a 20-second reaction test on the Quick Board™ (The Quick Board, LLC, Memphis, Tenn.) reaction timer (QB). Participants stood on a board of five circles, in a 2×1×2 pattern. The participant straddled the middle circle and reacted to a visual stimulus located on a display box that depicted one of five potential lights that corresponded with the circles on the board. Upon activation of the light, the participant attempted to move the foot closest to the circle that corresponded to the visual stimulus. Upon a successful connection the next stimulus appeared. The total number of successful attempts for the 20-second test and the average time between the activation of the light and the response to the corresponding circle were recorded. Additionally, to make inferences on true effects of the different trials on reaction performance, an analysis based on the magnitude of differences, calculated from 90% confidence intervals, as previously described by Batterham and Hopkins (2005), was used in this study. Differences in Post-Pre performance (Δresponse) between trials were analyzed via a published spreadsheet (Hopkins 2007), with the smallest non-trivial change set at 20% of the grand standard deviation (Batterham and Hopkins 2005). All data are expressed as a mean effect±SD, with percent chances of a beneficial, trivial or negative outcome. Qualitative inferences, based on quantitative chances were assessed as: <1% almost certainly not, 1-5% very unlikely, 5-25% unlikely, 25-75% possibly, 75-95% likely, 95-99% very likely and >99% almost certainly (Hopkins 2002).
# [2] = tested on: male runners; experiment: Dynavision D2 visual, motor and physical reaction time to a visual stimulus; assay type: in vivo, human; conditions: between groups
# Protocol: The testing protocol is depicted in FIG. 1. Data collection occurred on four separate occasions. Each session required participants to perform a 60-min run at 75% of their previously measured VO2max. Following this run, all participants performed a run at 90% of their VO2max until volitional exhaustion. All participants performed their first trial (DHY) without any rehydration. During this session the total weight lost during the trial was determined. The fluid loss that occurred during this session was then used to determine the participant's swear rate (L·hr^−1). To continue in the study, participant's sweat rate was or exceeded 1.3 L·hr^−1. […] The first assessment measured the participant's visual, motor, and physical reaction time to a stimulus with the dominant hand. […] Visual reaction time was determined as the amount of time from identifying the stimulus and initiating a reaction by leaving the home button. Motor response time was determined by the time (measured in 1/100's of a second) it took to physically strike the stimulus following the initial visual reaction and was measured as the amount of time from the hand leaving the home button and striking the stimulus. Physical reaction time was determined by the total elapsed time from the introduction of the target stimulus to the physical completion of the task (returning to the home button after striking the stimulus). […]
compound,measurement,setting,value
C[C@H](N)C(=O)N[C@@H](CCC(N)=O)C(=O)O [L-Alanyl-L-Glutamine] (H-Ala-Gln-OH),"QuickBoard Hit Δ, Interpretation",[1]; Dehydration vs High Dose,likely lower
same,"QuickBoard Hit Δ, Mean Difference",[1]; Dehydration vs High Dose,−2.6
same,"QuickBoard Hit Δ, Percent Negative",[1]; Dehydration vs High Dose,90.99%
same,"QuickBoard Hit Δ, Percent Positive",[1]; Dehydration vs High Dose,1.92%
same,"QuickBoard Hit Δ, Percent Trivial",[1]; Dehydration vs High Dose,7.10%
same,"QuickBoard Hit Δ, Interpretation",[1]; Dehydration vs Low Dose,likely lower
same,"QuickBoard Hit Δ, Mean Difference",[1]; Dehydration vs Low Dose,−2.2
same,"QuickBoard Hit Δ, Percent Negative",[1]; Dehydration vs Low Dose,88.90%
same,"QuickBoard Hit Δ, Percent Positive",[1]; Dehydration vs Low Dose,1.93%
same,"QuickBoard Hit Δ, Percent Trivial",[1]; Dehydration vs Low Dose,9.16%
same,"QuickBoard Hit Δ, Interpretation",[1]; Gatorade vs High Dose,Unclear
same,"QuickBoard Hit Δ, Mean Difference",[1]; Gatorade vs High Dose,−1.7
same,"QuickBoard Hit Δ, Percent Negative",[1]; Gatorade vs High Dose,73.53%
same,"QuickBoard Hit Δ, Percent Positive",[1]; Gatorade vs High Dose,9.72%
same,"QuickBoard Hit Δ, Percent Trivial",[1]; Gatorade vs High Dose,16.75%
same,"QuickBoard Hit Δ, group mean",[1]; High Dose (1 g per 500 ml),1.17
same,changes in lower body reaction (Quick Board),[1],performance appeared to improve in LD and HD
same,changes in lower body reaction (Quick Board),[1]; listed as L-alanyl-L-glutamine,Performance appeared to improve
same,"QuickBoard Hit Δ, group mean",[1]; Low Dose (300 mg per 500 ml),0.75
same,"QuickBoard Hit Δ, Interpretation",[1]; Low Dose vs Gatorade,Unclear
same,"QuickBoard Hit Δ, Mean Difference",[1]; Low Dose vs Gatorade,1.3
same,"QuickBoard Hit Δ, Percent Negative",[1]; Low Dose vs Gatorade,17.75%
same,"QuickBoard Hit Δ, Percent Positive",[1]; Low Dose vs Gatorade,63.09%
same,"QuickBoard Hit Δ, Percent Trivial",[1]; Low Dose vs Gatorade,19.15%
same,"QuickBoard Hit Δ, Interpretation",[1]; Low Dose vs High Dose,trivial; also recorded: Possibly
same,"QuickBoard Hit Δ, Mean Difference",[1]; Low Dose vs High Dose,0.42
same,"QuickBoard Hit Δ, Percent Negative",[1]; Low Dose vs High Dose,29.69%
same,"QuickBoard Hit Δ, Percent Positive",[1]; Low Dose vs High Dose,0.19%
same,"QuickBoard Hit Δ, Percent Trivial",[1]; Low Dose vs High Dose,70.12%
same,"change in visual, motor and physical reaction times to a visual stimulus",[2],No significant differences were noted between groups
